Holding throughout (format): in vivo
Test [1] has as its system Yellow Fever Mosquito (Aedes aegypti, AEDSAE). Briefly: Bioassay on Yellow Fever Mosquito (YFM), 96-well plate larval assay. The conditions noted are these: for YFM (Biological Results, rating): Species YFM (Yellow Fever Mosquito); for YFM rating: Yellow Fever Mosquito, 96-well plate larval assay. The gist of the method: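 Aedes aegypti larvae (about 1 day old) in liver-powder water were added to plates dispensed from DMSO master plates (4000 ppm stock) diluted with 90:10 water/acetone; six replicate plates per master. Lidded plates were held at room temperature for 3 days, then each well was scored for mortality.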

Test [2] relates to Beet Armyworm (Spodoptera exigua, LAPHEG). Kind of test: Bioassay on Beet Armyworm (BAW), 128-well diet tray assay. The gist of the method:
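Percent mortality, averaged across eight replicate wells, was scored after five to seven days at 25° C. under a 14:10 light-dark cycle. Each well's diet carried 50 μg/cm^2 of the dried test molecule and held one to five second instar larvae.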

Test [3] deals with Cabbage Looper (Trichoplusia ni, TRIPNI). Briefly: Bioassay on Cabbage Looper (CL), 128-well diet tray assay. The conditions noted are these: Trichoplusia ni. The gist of the method: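 Mortality of second instar larvae exposed to diet coated with 50 μg/cm^2 compound (acetone-water 90:10 vehicle, dried); 25° C., 5–7 days.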
Setting [4] is: Species BAW (Beet Armyworm), read-out: BAW (Biological Results, rating).
The mark [5] stands for this setting: Species CL (Cabbage Looper), read-out: CL (Biological Results, rating).
The mark [6] stands for this setting: Beet Armyworm, 128-well diet tray assay, read-out: BAW rating.
Setting [7] is: Cabbage Looper, 128-well diet tray assay, read-out: CL rating.

Like-named read-outs stand apart in the source and are kept apart here.

As to `O=C(Nc1cncc([N+](=O)[O-])c1)c1cc(NC(=O)[C@H]2[C@H](c3cc(Cl)cc(Cl)c3)C2(Cl)Cl)ccc1Cl` [F358, 2-Chloro-5-((1R,3R)-2,2-dichloro-3-(3,5-dichlorophenyl)cyclopropane-1-carboxamido)-N-(5-nitropyridin-3-yl)benzamide], in test [1], the “YFM (Biological Results, rating)” value was “A (80-100)”. The pest or weed control at 50 µg/cm2 in test [2] (setting [4]) and in test [3] (setting [5]) was 50 to 100% throughout.

For `Cc1cc(Cl)cc([C@H]2[C@H](C(=O)Nc3ccc(Cl)c(C(=O)Nc4c(F)cccc4F)c3)C2(Cl)Cl)c1` (relative stereo) [F118, trans-2-Chloro-5-(2,2-dichloro-3-(3-chloro-5-methylphenyl)cyclopropane-1-carboxamido)-N-(2,6-difluorophenyl)benzamide], the “YFM (Biological Results, rating)” value in test [1] is listed as “A (80-100)”. Also, the pest or weed control at 50 µg/cm2 in test [2] (setting [4]) and in test [3] (setting [5]) was 50 to 100% throughout.

As for `O=C(Nc1ccc2c(ccn2CCF)c1)c1cc(NC(=O)[C@H]2[C@H](c3cc(Cl)cc(Cl)c3)C2(Cl)Cl)ccc1Cl` (relative stereo) [F496, 2-Chloro-5-(trans)-(2,2-dichloro-3-(3,5-dichlorophenyl)cyclopropane-1-carboxamido)-N-(1-(2-fluoroethyl)-1H-indol-5-yl)benzamide], in test [1], the YFM rating result is listed as “A (80-100)”. The pest or weed control at 50 µg/cm2 in test [2] (setting [6]) and in test [3] (setting [7]) was 50 to 100% throughout.

In the case of `O=C(Nc1ccc(F)cc1F)c1cc(NC(=O)[C@H]2[C@H](c3ccc(Cl)c(C(F)F)c3)C2(Cl)Cl)ccc1Cl` (relative stereo) [F559, 2-Chloro-5-(trans-2,2-dichloro-3-(4-chloro-3-(difluoromethyl)phenyl)cyclopropane-1-carboxamido)-N-(2,4-difluorophenyl)benzamide], in test [1], the YFM rating result is “A (80-100)”. The pest or weed control at 50 µg/cm2 in test [2] (setting [6]) and in test [3] (setting [7]) was 50 to 100% throughout.

Consider `O=C(Nc1ccc2ncoc2c1)c1cc(NC(=O)C2C(c3cc(Cl)cc(Cl)c3)C2(Cl)Cl)ccc1Cl` (stereo not drawn) [F450, N-(Benzo[d]oxazol-6-yl)-2-chloro-5-(trans)-2,2-dichloro-3-(3,5-dichlorophenyl)cyclopropane-1-carboxamido)benzamide], for which, in test [1], the YFM rating entry is recorded as “A (80-100)”. The pest or weed control at 50 µg/cm2 in test [2] (setting [6]) and in test [3] (setting [7]) was 50 to 100% in each case.

With `Nc1ccc(F)c(NC(=O)c2cc(NC(=O)[C@H]3[C@H](c4cc(Cl)c(Cl)c(Cl)c4)C3(Cl)Cl)ccc2Cl)c1` [F429, N-(5-Amino-2-fluorophenyl)-2-chloro-5-((1R,3R)-2,2-dichloro-3-(3,4,5-trichlorophenyl)cyclopropane-1-carboxamido)benzamide], the YFM rating result in test [1] is “A (80-100)”. Moreover, the pest or weed control at 50 µg/cm2 in test [2] (setting [6]) and in test [3] (setting [7]) was 50 to 100% each time.

Regarding `C=Cc1cc(NC(=O)c2cc(NC(=O)[C@H]3[C@H](c4cc(Cl)cc(Cl)c4)C3(Cl)Cl)ccc2Cl)cnc1F` (relative stereo) [F399, 2-Chloro-5-(trans-2,2-dichloro-3-(3,5-dichlorophenyl)cyclopropane-1-carboxamido)-N-(6-fluoro-5-vinylpyridin-3-yl)benzamide], the YFM rating entry in test [1] is on record as “A (80-100)”. Also, the pest or weed control at 50 µg/cm2 in test [2] (setting [6]) and in test [3] (setting [7]) was 50 to 100% throughout.

Turning to `O=C(Nc1ccc(F)cc1F)c1cc(NC(=O)[C@H]2[C@H](c3cc(F)cc(C(F)F)c3)C2(Cl)Cl)ccc1Cl` (relative stereo) [F560, 2-Chloro-5-(trans-2,2-dichloro-3-(3-(difluoromethyl)-5-fluorophenyl)cyclopropane-1-carboxamido)-N-(2,4-difluorophenyl)benzamide], in test [1], the YFM rating entry is recorded as “A (80-100)”. The pest or weed control at 50 µg/cm2 in test [2] (setting [6]) and in test [3] (setting [7]) was 50 to 100% throughout.

In the case of `CN(C(=O)c1cc(NC(=O)[C@H]2[C@H](c3cc(Cl)cc(Cl)c3)C2(Cl)Cl)ccc1Cl)c1ccc(F)cc1C#N` (relative stereo) [F243, trans-2-Chloro-N-(2-cyano-4-fluorophenyl)-5-(2,2-dichloro-3-(3,5-dichlorophenyl)cyclopropane-1-carboxamido)-N-methylbenzamide], the “YFM (Biological Results, rating)” value in test [1] is recorded as “A (80-100)”. Moreover, the pest or weed control at 50 µg/cm2 in test [2] (setting [4]) and in test [3] (setting [5]) was 50 to 100% in each case.

With `N#Cc1ccc2c(N)nn(C(=O)c3cc(NC(=O)[C@H]4[C@H](c5cc(Cl)cc(Cl)c5)C4(Cl)Cl)ccc3Cl)c2c1` (relative stereo) [F493, trans-N-(3-(3-Amino-6-cyano-1H-indazole-1-carbonyl)-4-chlorophenyl)-2,2-dichloro-3-(3,5-dichlorophenyl)cyclopropane-1-carboxamide], in test [1], the YFM rating result is “A (80-100)”. Moreover, the pest or weed control at 50 µg/cm2 in test [2] (setting [6]) and in test [3] (setting [7]) was 50 to 100% in each case.

In the case of `C=Cc1cc(Cl)cc([C@H]2[C@H](C(=O)Nc3ccc(Cl)c(C(=O)Nc4ccc(F)c(N)c4F)c3)C2(Cl)Cl)c1` (relative stereo) [F356, N-(3-Amino-2,4-difluorophenyl)-2-chloro-5-(trans-2,2-dichloro-3-(3-chloro-5-vinylphenyl)cyclopropane-1-carboxamido)benzamide], the “YFM (Biological Results, rating)” value in test [1] was “A (80-100)”. Further, the pest or weed control at 50 µg/cm2 in test [2] (setting [4]) and in test [3] (setting [5]) was 50 to 100% throughout.

Regarding `CN(C(=O)c1cc(NC(=O)[C@H]2[C@H](c3ccc(Cl)c(C(F)F)c3)C2(Cl)Cl)ccc1Cl)c1ccc(F)cc1` (relative stereo) [F593, 2-Chloro-5-(trans-2,2-dichloro-3-(4-chloro-3-(difluoromethyl)phenyl)cyclopropane-1-carboxamido)-N-(4-fluorophenyl)-N-methylbenzamide], the YFM rating entry in test [1] is listed as “A (80-100)”. Besides, the pest or weed control at 50 µg/cm2 in test [2] (setting [6]) and in test [3] (setting [7]) was 50 to 100% throughout.

In the case of `O=C(Nc1ccc(F)cc1)c1cc(NC(=O)[C@H]2[C@H](c3cccc(C(F)(F)F)c3)C2(Cl)Cl)ccc1Cl` (relative stereo) [F56, trans-2-Chloro-5-(2,2-dichloro-3-(3-(trifluoromethyl)phenyl)cyclopropane-1-carboxamido)-N-(4-fluorophenyl)benzamide], the “YFM (Biological Results, rating)” value in test [1] is reported as “B (More than 0-Less than 80)”. Further, the pest or weed control at 50 µg/cm2 in test [2] (setting [4]) and in test [3] (setting [5]) was 50 to 100% throughout.

As to `O=C(Nc1nc2ccccc2o1)c1cc(NC(=O)C2C(c3cc(Cl)cc(Cl)c3)C2(Cl)Cl)ccc1Cl` (stereo not drawn) [F447, N-(Benzo[d]oxazol-2-yl)-2-chloro-5-(trans)-2,2-dichloro-3-(3,5-dichlorophenyl)cyclopropane-1-carboxamido)benzamide], in test [1], the YFM rating entry is “A (80-100)”. Besides, the pest or weed control at 50 µg/cm2 in test [2] (setting [6]) and in test [3] (setting [7]) was 50 to 100% each time.

As to `O=C(Nc1ccc(I)cc1)c1cc(NC(=O)[C@H]2[C@H](c3cc(Cl)cc(Cl)c3)C2(Cl)Cl)ccc1Cl` (relative stereo) [F193, trans-2-Chloro-5-(2,2-dichloro-3-(3,5-dichlorophenyl)cyclopropane-1-carboxamido)-N-(4-iodophenyl)benzamide], the “YFM (Biological Results, rating)” value in test [1] is on record as “B (More than 0-Less than 80)”. Also, the pest or weed control at 50 µg/cm2 in test [2] (setting [4]) and in test [3] (setting [5]) was 50 to 100% in each case.

For the compound `O=C(Nc1ccc(I)c(F)c1)c1cc(NC(=O)[C@H]2[C@H](c3cc(Cl)cc(Cl)c3)C2(Cl)Cl)ccc1Cl` (relative stereo) [F204, trans-2-Chloro-5-(2,2-dichloro-3-(3,5-dichlorophenyl)cyclopropane-1-carboxamido)-N-(3-fluoro-4-iodophenyl)benzamide], the “YFM (Biological Results, rating)” value in test [1] is listed as “A (80-100)”. Further, the pest or weed control at 50 µg/cm2 in test [2] (setting [4]) and in test [3] (setting [5]) was 50 to 100% throughout.

Regarding `O=C(Nc1ccc(F)cc1)c1cc(NC(=O)[C@H]2[C@H](c3cc(Cl)cc(Cl)c3)C2(Cl)Cl)ccc1OC(F)(F)F` (relative stereo) [F135, trans-5-(2,2-Dichloro-3-(3,5-dichlorophenyl)cyclopropane-1-carboxamido)-N-(4-fluorophenyl)-2-(trifluoromethoxy)benzamide], in test [1], the “YFM (Biological Results, rating)” value was “A (80-100)”. For the same compound, the pest or weed control at 50 µg/cm2 in test [2] (setting [4]) and in test [3] (setting [5]) was 50 to 100% throughout.

Turning to `Cc1ccc(C#N)c(NC(=O)c2cc(NC(=O)[C@H]3[C@H](c4cc(Cl)cc(Cl)c4)C3(Cl)Cl)ccc2Cl)c1` (relative stereo) [F230, 2-Chloro-N-(2-cyano-5-methylphenyl)-5-(trans-2,2-dichloro-3-(3,5-dichlorophenyl)cyclopropane-1-carboxamido)benzamide], in test [1], the “YFM (Biological Results, rating)” value is “A (80-100)”. The pest or weed control at 50 µg/cm2 in test [2] (setting [4]) and in test [3] (setting [5]) was 50 to 100% throughout.

Consider `CC(C)(C)OC(=O)N(C(=O)OC(C)(C)C)c1c(F)ccc(NC(=O)c2cc(NC(=O)[C@H]3[C@H](c4cccc(C(F)(F)F)c4)C3(Cl)Cl)ccc2Cl)c1F` (relative stereo) [F516, trans-tert-Butyl-N-((tert-butoxy)carbonyl)-N-(3-(2-chloro-5-(2,2-dichloro-3-(3-(trifluoromethyl)phenyl)cyclopropane-1-carboxamido)benzamido)-2,6-difluorophenyl)carbamate], for which the YFM rating result in test [1] is “A (80-100)”. Also, the pest or weed control at 50 µg/cm2 in test [2] (setting [6]) and in test [3] (setting [7]) was 50 to 100% in each case.

Source of the values: patent publication US10219516B2, “Molecules having pesticidal utility, and intermediates, compositions, and processes, related thereto” (priority 2015, dated 2019).
